Values of other authors, collected in US20190055521A1, “Methods Of Propagating Rhinovirus C In Previously Unsusceptible Cell Lines” (Wisconsin Alumni Research Foundation, priority 2014, published 2019).
Where two headings read alike, the source gives them in different places.

Experiments:
RV-A [1] = conditions: unmodified HeLa cells; previously documented
RV-B [2] = conditions: unmodified HeLa cells; previously documented
RV-A [3] = conditions: unmodified HeLa cells; drug added to cells before infection; previously documented
RV-B [4] = conditions: unmodified HeLa cells; drug added to cells before infection; previously documented

SMILES	inhibition of RV-A (RV-A [1])	inhibition of RV-B (RV-B [2])	inhibition of RV-A (RV-A [3])	inhibition of RV-B (RV-B [4])
Cc1cc(CCCOc2c(C)cc(-c3noc(C(F)(F)F)n3)cc2C)on1 [Pleconaril]	inhibition	inhibition	–	–
CCOC(=O)/C=C/[C@H](C[C@@H]1CCNC1=O)NC(=O)[C@@H](CC(=O)[C@@H](NC(=O)c1cc(C)on1)C(C)C)Cc1ccc(F)cc1 [Rupintrivir]	–	–	inhibition	inhibition
